Measured values from PubChem BioAssay AID330 (DTP/NCI, 2004).
Where “and” joins values, the source holds several entries; their conditions need not be identical. Identical values can stand only once. Toxic doses and inconclusive results are not listed. The calls were made as follows: active = survival T/C of 150% or more; inactive = T/C below 125% in these data.

System: P388 leukemia ip, CD2F1 mice, survival T/C
Assay: NCI In Vivo Anticancer Drug Screen. Data for tumor model P388 Leukemia (intraperitoneal) in CD2F1 (CDF1) mice
Conditions: endpoint: median survival time, higher = longer survival
Method in brief: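 Mice carrying the transplanted tumor received test compound or vehicle. Survival was recorded in each group, and the value is the treated-group measurement divided by that of the vehicle-treated control group.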

[1] = dose: 60.0 mg/kg/injection, schedule: Q01DX005 (ip), vehicle: saline with Tween-80
[2] = dose: 120.0 mg/kg/injection, schedule: Q01DX005 (ip), vehicle: saline with Tween-80
[3] = dose: 240.0 mg/kg/injection, schedule: Q01DX005 (ip), vehicle: saline with Tween-80
[4] = dose: 25.0 mg/kg/injection, schedule: Q01DX009 (ip), vehicle: saline with Tween-80
[5] = dose: 50.0 mg/kg/injection, schedule: Q01DX009 (ip), vehicle: saline with Tween-80
[6] = dose: 100.0 mg/kg/injection, schedule: Q01DX009 (ip), vehicle: saline with Tween-80
[7] = dose: 100.0 mg/kg/injection, schedule: Q04DX003 (ip), vehicle: Klucel (hydroxypropylcellulose) (HPC)
[8] = dose: 200.0 mg/kg/injection, schedule: Q04DX003 (ip), vehicle: Klucel (hydroxypropylcellulose) (HPC)
[9] = dose: 400.0 mg/kg/injection, schedule: Q04DX003 (ip), vehicle: Klucel (hydroxypropylcellulose) (HPC)
[10] = dose: 30.0 mg/kg/injection, schedule: Q01DX005 (ip), vehicle: saline with Tween-80
[11] = dose: 50.0 mg/kg/injection, schedule: Q01DX005 (ip), vehicle: saline with Tween-80
[12] = dose: 100.0 mg/kg/injection, schedule: Q01DX005 (ip), vehicle: saline with Tween-80
[13] = dose: 200.0 mg/kg/injection, schedule: Q01DX005 (ip), vehicle: saline with Tween-80
[14] = dose: 200.0 mg/kg/injection, schedule: Q01DX009 (ip), vehicle: saline with Tween-80
[15] = dose: 100.0 mg/kg/injection, schedule: Q01DX001 (ip), vehicle: saline with Tween-80

Measured: T/C

CCn1c2ccccc2c2cc(N/C=C/C3=[N+](C)c4ccccc4C3(C)C)ccc21
inactive: dose: 1.56 mg/kg/injection, schedule: Q01DX009 (ip), vehicle: Klucel (hydroxypropylcellulose) (HPC) 107 % of control and 111 % of control | dose: 3.12 mg/kg/injection, schedule: Q01DX009 (ip), vehicle: Klucel (hydroxypropylcellulose) (HPC) 100 % of control and 114 % of control | dose: 6.25 mg/kg/injection, schedule: Q01DX009 (ip), vehicle: Klucel (hydroxypropylcellulose) (HPC) 116 % of control (2×) and 123 % of control | dose: 12.5 mg/kg/injection, schedule: Q01DX009 (ip), vehicle: Klucel (hydroxypropylcellulose) (HPC) 109 % of control | dose: 25.0 mg/kg/injection, schedule: Q01DX009 (ip), vehicle: Klucel (hydroxypropylcellulose) (HPC) 96 % of control

CCOC(=O)C(=CNc1cc(C)c2[nH]c3ccc(Cl)cc3c2c1C)C(=O)OCC
inactive: [1] 92 % of control | [2] 93 % of control | [3] 86 % of control and 94 % of control

CCOC(=O)/C=C/CI
inactive: dose: 25.0 mg/kg/injection, schedule: Q01DX009 (ip), vehicle: other 105 % of control and 98 % of control | dose: 50.0 mg/kg/injection, schedule: Q01DX009 (ip), vehicle: other 114 % of control and 120 % of control and 97 % of control | dose: 100.0 mg/kg/injection, schedule: Q01DX009 (ip), vehicle: other 117 % of control and 97 % of control

CC(=O)OC1CC(C)OC(OC2CCC3(C=O)C4C(O)C(=O)[C@]5(C)C(c6ccc(=O)oc6)CC[C@]5(O)C4CC[C@]3(O)C2)C1OC(C)=O (stereo partly drawn)
inactive: dose: 0.18 mg/kg/injection, schedule: Q01DX009 (ip), vehicle: distilled water + Tween-80 + alcohol 90 % of control | dose: 0.35 mg/kg/injection, schedule: Q01DX009 (ip), vehicle: distilled water + Tween-80 + alcohol 107 % of control | dose: 0.71 mg/kg/injection, schedule: Q01DX009 (ip), vehicle: distilled water + Tween-80 + alcohol 100 % of control | dose: 1.42 mg/kg/injection, schedule: Q01DX009 (ip), vehicle: distilled water + Tween-80 + alcohol 109 % of control | dose: 2.84 mg/kg/injection, schedule: Q01DX009 (ip), vehicle: distilled water + Tween-80 + alcohol 100 % of control

COc1cc2c(cc1OC)C(Cc1ccccc1)=NCC2
inactive: [4] 100 % of control | [5] 95 % of control | [6] 90 % of control

CC(=O)Oc1cccc(C#N)c1
inactive: dose: 100.0 mg/kg/injection, schedule: Q04DX003 (ip), vehicle: saline with Tween-80 100 % of control | dose: 200.0 mg/kg/injection, schedule: Q04DX003 (ip), vehicle: saline with Tween-80 100 % of control | dose: 400.0 mg/kg/injection, schedule: Q04DX003 (ip), vehicle: saline with Tween-80 104 % of control

CC(=O)NS(=O)(=O)c1ccc(C)cc1
inactive: [7] 106 % of control | [8] 107 % of control | [9] 100 % of control

COC1/C=C\C=C(/C)C(=O)NC2=CC(=O)C(NC3CC3)=C(CC(C)CC(OC)C(O)C(C)/C=C(/C)C1OC(N)=O)C2=O (stereo not drawn)
inactive: dose: 12.5 mg/kg/injection, schedule: Q04DX002 (ip), vehicle: saline with Tween-80 107 % of control | dose: 18.75 mg/kg/injection, schedule: Q04DX002 (ip), vehicle: saline with Tween-80 108 % of control | dose: 25.0 mg/kg/injection, schedule: Q04DX002 (ip), vehicle: saline with Tween-80 107 % of control and 113 % of control | dose: 37.5 mg/kg/injection, schedule: Q04DX002 (ip), vehicle: saline with Tween-80 108 % of control | dose: 50.0 mg/kg/injection, schedule: Q04DX002 (ip), vehicle: saline with Tween-80 111 % of control and 113 % of control | dose: 75.0 mg/kg/injection, schedule: Q04DX002 (ip), vehicle: saline with Tween-80 117 % of control | dose: 100.0 mg/kg/injection, schedule: Q04DX002 (ip), vehicle: saline with Tween-80 120 % of control and 88 % of control

CCCCCCCCSC(=O)n1cc(F)c(=O)[nH]c1=O
inactive: dose: 15.0 mg/kg/injection, schedule: Q01DX005 (ip), vehicle: saline with Tween-80 103 % of control | [10] 120 % of control | [1] 120 % of control

CCC(c1ccc(CN(C)C)c(O)c1)C(CC)c1ccc(CN(C)C)c(O)c1 (stereo not drawn)
inactive: [1] 93 % of control | [2] 91 % of control | [3] 102 % of control

Cc1cc(NN)nc2n[nH]c(N)c12
inactive: dose: 12.5 mg/kg/injection, schedule: Q01DX005 (ip), vehicle: saline with Tween-80 105 % of control | dose: 25.0 mg/kg/injection, schedule: Q01DX005 (ip), vehicle: saline with Tween-80 97 % of control | [11] 102 % of control and 112 % of control

CN(C)CC#N
inactive: dose: 5.0 mg/kg/injection, schedule: Q01DX009 (ip), vehicle: saline 104 % of control | dose: 10.0 mg/kg/injection, schedule: Q01DX009 (ip), vehicle: saline 109 % of control | dose: 20.0 mg/kg/injection, schedule: Q01DX009 (ip), vehicle: saline 109 % of control

CC1CC(Nc2ccc(NC3=CC(=O)OC(C)C3)cc2)=CC(=O)O1 (stereo not drawn)
inactive: [11] 94 % of control | [12] 92 % of control | [13] 90 % of control

O=C(/C=C/c1cccc([N+](=O)[O-])c1)c1ccccc1
inactive: [5] 99 % of control | [6] 92 % of control | [14] 92 % of control | dose: 400.0 mg/kg/injection, schedule: Q01DX009 (ip), vehicle: saline with Tween-80 100 % of control

NSc1ccccn1
inactive: dose: 25.0 mg/kg/injection, schedule: Q01DX001 (ip), vehicle: Klucel (hydroxypropylcellulose) (HPC) 96 % of control | dose: 50.0 mg/kg/injection, schedule: Q01DX001 (ip), vehicle: Klucel (hydroxypropylcellulose) (HPC) 96 % of control | dose: 100.0 mg/kg/injection, schedule: Q01DX001 (ip), vehicle: Klucel (hydroxypropylcellulose) (HPC) 97 % of control | [15] 102 % of control

C=CCNC(=S)N/N=C(\C)c1cccc(C)n1
inactive: [11] 100 % of control | [12] 100 % of control | [13] 112 % of control

O=Nc1c(NO)n(-c2ccccc2)c(=S)n1-c1ccccc1
inactive: [11] 95 % of control | [12] 109 % of control | [13] 104 % of control

O=C1NC(=O)N2CCCOC2C1c1ccccc1 (stereo not drawn)
inactive: dose: 50.0 mg/kg/injection, schedule: Q01DX009 (ip), vehicle: Klucel (hydroxypropylcellulose) (HPC) 103 % of control | dose: 100.0 mg/kg/injection, schedule: Q01DX009 (ip), vehicle: Klucel (hydroxypropylcellulose) (HPC) 99 % of control | dose: 200.0 mg/kg/injection, schedule: Q01DX009 (ip), vehicle: Klucel (hydroxypropylcellulose) (HPC) 99 % of control

Clc1cccc(Cl)c1C(Nc1nccs1)Nc1nccs1
inactive: dose: 50.0 mg/kg/injection, schedule: Q01DX005 (ip), vehicle: Klucel (hydroxypropylcellulose) (HPC) 100 % of control | dose: 100.0 mg/kg/injection, schedule: Q01DX005 (ip), vehicle: Klucel (hydroxypropylcellulose) (HPC) 103 % of control | dose: 200.0 mg/kg/injection, schedule: Q01DX005 (ip), vehicle: Klucel (hydroxypropylcellulose) (HPC) 114 % of control

CCOC(=O)N1CCc2nc3ccc(Cl)cc3cc21
inactive: [4] 117 % of control | [5] 98 % of control | [6] 99 % of control | [14] 108 % of control

Oc1ccc2ccccc2c1/C=N/c1nc(-c2ccc(Cl)cc2)cs1
inactive: [15] 89 % of control | dose: 200.0 mg/kg/injection, schedule: Q01DX001 (ip), vehicle: saline with Tween-80 90 % of control | dose: 400.0 mg/kg/injection, schedule: Q01DX001 (ip), vehicle: saline with Tween-80 92 % of control

Cc1ccc(S(=O)(=O)F)c(Cl)c1
inactive: [7] 95 % of control | [8] 119 % of control | [9] 103 % of control

Fc1ccc(F)c(C(Nc2nncs2)Nc2nncs2)c1
inactive: [10] 110 % of control | [1] 108 % of control and 119 % of control

Cc1c(C)c(C)c(S(=O)(=O)OCCCl)c(C)c1C
inactive: [11] 98 % of control | [12] 92 % of control | [13] 95 % of control

O=C(CC(=O)C(F)(F)F)c1csc2ccccc12
inactive: dose: 12.5 mg/kg/injection, schedule: Q01DX009 (ip), vehicle: saline with Tween-80 95 % of control | dose: 12.5 mg/kg/injection, schedule: Q04DX003 (ip), vehicle: saline with Tween-80 100 % of control | [4] 100 % of control | dose: 25.0 mg/kg/injection, schedule: Q04DX003 (ip), vehicle: saline with Tween-80 100 % of control | [5] 109 % of control | dose: 50.0 mg/kg/injection, schedule: Q04DX003 (ip), vehicle: saline with Tween-80 109 % of control
